Source: ChEMBL document CHEMBL1139672, “1,2,3,4-Tetrahydroisoquinolinyl sulfamic acids as phosphatase PTP1B inhibitors” (Bioorg Med Chem Lett, 2006)

biological target: T1, Tyrosine-protein phosphatase non-receptor type 1 (Homo sapiens, UniProt P18031); test: Inhibition of PTP1B
T1 sequence (P18031 whole entry): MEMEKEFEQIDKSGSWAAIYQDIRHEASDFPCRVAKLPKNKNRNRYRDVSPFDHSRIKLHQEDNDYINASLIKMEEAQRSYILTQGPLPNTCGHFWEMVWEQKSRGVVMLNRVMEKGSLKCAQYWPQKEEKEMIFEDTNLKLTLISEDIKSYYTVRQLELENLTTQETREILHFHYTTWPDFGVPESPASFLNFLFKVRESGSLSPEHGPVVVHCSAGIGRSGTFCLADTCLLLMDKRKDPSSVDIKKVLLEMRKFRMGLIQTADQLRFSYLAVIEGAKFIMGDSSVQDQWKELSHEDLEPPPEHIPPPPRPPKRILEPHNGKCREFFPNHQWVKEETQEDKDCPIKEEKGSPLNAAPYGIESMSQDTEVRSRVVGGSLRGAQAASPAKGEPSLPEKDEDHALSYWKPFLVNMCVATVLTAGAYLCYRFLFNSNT

SMILES | IC50
CNC(=O)[C@@H]1Cc2ccc(NS(=O)(=O)O)cc2CN1C(=O)CCc1ccccc1 | 64.4 µM
COC(=O)[C@@H]1Cc2ccc(NS(=O)(=O)O)cc2CN1C(=O)OC(C)(C)C | 19 µM
CNC(=O)[C@@H]1Cc2ccc(NS(=O)(=O)O)cc2CN1C(=O)CCc1cccc(O)c1 | 82.1 µM
CC(C)(C)OC(=O)N1Cc2cc(NS(=O)(=O)O)ccc2C[C@H]1C(=O)NCc1ccccc1 | 120 µM
CNC(=O)[C@@H]1Cc2ccc(NS(=O)(=O)O)cc2CN1C(=O)CCc1coc2ccccc12 | 36.7 µM
CNC(=O)[C@@H]1Cc2ccc(NS(=O)(=O)O)cc2CN1C(=O)CCOc1ccccc1 | 83.6 µM
CNC(=O)[C@@H]1Cc2ccc(NS(=O)(=O)O)cc2CN1C(=O)CCC(=O)O | 154 µM
CNC(=O)[C@@H]1Cc2ccc(NS(=O)(=O)O)cc2CN1C(=O)COc1cccc(O)c1C(=O)OC | 93.4 µM
CNC(=O)[C@@H]1Cc2ccc(NS(=O)(=O)O)cc2CN1C(=O)OC(C)(C)C | 42.5 µM
CC(C)(C)OC(=O)N1Cc2cc(NS(=O)(=O)O)ccc2C[C@H]1C(=O)NCCc1ccccc1 | 51.4 µM
CNC(=O)[C@@H]1Cc2ccc(NS(=O)(=O)O)cc2CN1C(=O)/C=C/c1coc2ccccc12 | 24.9 µM
CNC(=O)[C@@H]1Cc2ccc(NS(=O)(=O)O)cc2CN1C(=O)CCc1cccc(Cl)c1 | 101 µM
CNC(=O)[C@@H]1Cc2ccc(NS(=O)(=O)O)cc2CN1C(=O)COc1ccccc1 | 95.3 µM
CNC(=O)[C@@H]1Cc2ccc(NS(=O)(=O)O)cc2CN1C(=O)CCc1ccc(C)cc1 | 198 µM
CC(C)(C)OC(=O)N1Cc2cc(NS(=O)(=O)O)ccc2C[C@H]1CO | > 500 µM
CNC(=O)[C@@H]1Cc2ccc(NS(=O)(=O)O)cc2CN1C(=O)CCCCc1ccccc1 | 148 µM
CNC(=O)[C@@H]1Cc2ccc(NS(=O)(=O)O)cc2CN1C(=O)[C@H](Cc1ccccc1)NC(=O)OC(C)(C)C | > 500 µM
CNC(=O)[C@@H]1Cc2ccc(NS(=O)(=O)O)cc2CN1C(=O)CCc1cc(NS(C)(=O)=O)cc(C(F)(F)F)c1 | 184 µM
CNC(=O)[C@@H]1Cc2ccc(NS(=O)(=O)O)cc2CN1C(=O)CCc1cccc(C(F)(F)F)c1 | 146 µM
CNC(=O)[C@@H]1Cc2ccc(NS(=O)(=O)O)cc2CN1C(=O)CCCc1ccccc1 | 271 µM
CNC(=O)[C@H](Cc1ccc(NS(=O)(=O)O)cc1)NC(=O)OC(C)(C)C | 39.6 µM
CC(C)COC(=O)[C@@H]1Cc2ccc(NS(=O)(=O)O)cc2CN1C(=O)OC(C)(C)C | 16.7 µM
CNC(=O)[C@@H]1Cc2ccc(NS(=O)(=O)O)cc2CN1C(=O)CCc1ccc(C(F)(F)F)cc1 | 225 µM
O=C(CCc1cccc(NS(=O)(=O)O)c1)N1CCc2ccc(NS(=O)(=O)O)cc2C1 | 26 µM
CNC(=O)[C@@H]1Cc2ccc(NS(=O)(=O)O)cc2CN1C(=O)CCc1ccc(OC)cc1 | 242 µM
CNC(=O)[C@@H]1Cc2ccc(NS(=O)(=O)O)cc2CN1C(=O)NCc1ccccc1 | 164 µM
CNC(=O)[C@@H]1Cc2ccc(NS(=O)(=O)O)cc2CN1C(=O)c1ccccc1 | 286 µM
Cc1noc([C@@H]2Cc3ccc(NS(=O)(=O)O)cc3CN2C(=O)OC(C)(C)C)n1 | 8.23 µM

biological target: T2, Tyrosine-protein phosphatase non-receptor type 2 (Homo sapiens, UniProt P17706); test: Inhibition of TCPTP
T2 sequence (P17706 whole entry): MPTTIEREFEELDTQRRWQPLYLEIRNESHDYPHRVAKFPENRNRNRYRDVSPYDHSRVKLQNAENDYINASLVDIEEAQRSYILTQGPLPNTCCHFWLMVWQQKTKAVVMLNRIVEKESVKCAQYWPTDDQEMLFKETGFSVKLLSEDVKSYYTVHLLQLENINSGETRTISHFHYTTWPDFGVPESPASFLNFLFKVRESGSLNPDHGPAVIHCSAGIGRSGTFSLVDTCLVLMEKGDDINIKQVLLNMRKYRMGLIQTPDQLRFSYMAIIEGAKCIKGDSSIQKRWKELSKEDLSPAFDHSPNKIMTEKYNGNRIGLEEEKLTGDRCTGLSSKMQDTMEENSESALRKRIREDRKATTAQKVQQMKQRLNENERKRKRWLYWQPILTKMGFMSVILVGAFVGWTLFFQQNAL

SMILES | IC50
CNC(=O)[C@@H]1Cc2ccc(NS(=O)(=O)O)cc2CN1C(=O)OC(C)(C)C | 169 µM
CNC(=O)[C@H](Cc1ccc(NS(=O)(=O)O)cc1)NC(=O)OC(C)(C)C | 80.1 µM
O=C(CCc1cccc(NS(=O)(=O)O)c1)NCc1cccc(NS(=O)(=O)O)c1 | 204 µM
O=C(CCc1cccc(NS(=O)(=O)O)c1)N1CCc2ccc(NS(=O)(=O)O)cc2C1 | 68.6 µM
